Assay results from ChEMBL document CHEMBL1201862, “PubChem BioAssay data set” (2004).
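Compound exposure: 48 hours, 5 concentrations, 96-well plates. At the GI50, growth is halved.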 Activity calls are given as the source filed them. Rule as the data show it: active = GI50 up to about 1.1 µM and inactive = higher.

Key:
Test in all cases: inhibition of tumour cell growth, NCI panel, 48 h
CAKI-1 = system: CAKI-1
COLO 205 = system: COLO 205
HCT-116 = system: HCT-116
HOP-62 = system: HOP-62
HT-29 = system: HT-29
Hs-578T = system: Hs-578T
IGROV-1 = system: IGROV-1
LOX IMVI = system: LOX IMVI
MCF7 = system: MCF7
MDA-MB-435 = system: MDA-MB-435
MDA-N = system: MDA-N
NCI-H23 = system: NCI-H23
RPMI-8226 = system: RPMI-8226
SF-295 = system: SF-295
SK-MEL-2 = system: SK-MEL-2
SK-OV-3 = system: SK-OV-3
SN12C = system: SN12C
SNB-19 = system: SNB-19
SNB-75 = system: SNB-75
U-251 = system: U-251

COc1c(-c2cc(C)c(Cl)c(=O)[nH]2)c(O)c(OC)c2occc12
GI50 (CAKI-1): > 100 µM (inactive) | GI50 (COLO 205): > 100 µM (inactive) | GI50 (HCT-116): > 100 µM (inactive) | GI50 (HOP-62): > 100 µM (inactive) | GI50 (HT-29): > 100 µM (inactive) | GI50 (Hs-578T): > 10 µM (inactive) | GI50 (IGROV-1): > 100 µM (inactive) | GI50 (LOX IMVI): > 100 µM (inactive) | GI50 (MCF7): > 100 µM (inactive) | GI50 (MDA-MB-435): > 100 µM (inactive) | GI50 (MDA-N): > 100 µM (inactive) | GI50 (NCI-H23): > 100 µM (inactive) | GI50 (RPMI-8226): > 100 µM (inactive) | GI50 (SF-295): > 100 µM (inactive) | GI50 (SK-MEL-2): > 100 µM (inactive) | GI50 (SK-OV-3): > 100 µM (inactive) | GI50 (SN12C): > 100 µM (inactive) | GI50 (SNB-19): 96.4 µM (inactive) | GI50 (SNB-75): 26.7 µM (inactive) | GI50 (U-251): > 100 µM (inactive)

O=C(/C=C\c1ccsc1)c1ccccc1
GI50 (CAKI-1): 3.71 µM (inactive) | GI50 (COLO 205): 16.2 µM (inactive) | GI50 (HCT-116): 3.85 µM (inactive) | GI50 (HOP-62): 16.1 µM (inactive) | GI50 (HT-29): 4.06 µM (inactive) | GI50 (Hs-578T): 5.35 µM (inactive) | GI50 (IGROV-1): 6.9 µM (inactive) | GI50 (LOX IMVI): 2.21 µM (inactive) | GI50 (MCF7): 1.74 µM (inactive) | GI50 (MDA-MB-435): 10.6 µM (inactive) | GI50 (MDA-N): 12.4 µM (inactive) | GI50 (NCI-H23): 5.7 µM (inactive) | GI50 (RPMI-8226): 2.22 µM (inactive) | GI50 (SF-295): 15.8 µM (inactive) | GI50 (SK-MEL-2): 16.7 µM (inactive) | GI50 (SK-OV-3): 17.1 µM (inactive) | GI50 (SN12C): 12 µM (inactive) | GI50 (SNB-19): 13.2 µM (inactive) | GI50 (SNB-75): 10.1 µM (inactive) | GI50 (U-251): 3.78 µM (inactive)

Nc1cc2nc(O)c(O)nc2cc1N
GI50 (CAKI-1): > 100 µM (inactive) | GI50 (COLO 205): > 100 µM (inactive) | GI50 (HCT-116): > 100 µM (inactive) | GI50 (HOP-62): > 100 µM (inactive) | GI50 (HT-29): > 100 µM (inactive) | GI50 (Hs-578T): > 100 µM (inactive) | GI50 (IGROV-1): > 100 µM (inactive) | GI50 (LOX IMVI): > 100 µM (inactive) | GI50 (MCF7): > 100 µM (inactive) | GI50 (MDA-MB-435): > 100 µM (inactive) | GI50 (MDA-N): > 100 µM (inactive) | GI50 (NCI-H23): > 100 µM (inactive) | GI50 (RPMI-8226): > 100 µM (inactive) | GI50 (SF-295): > 100 µM (inactive) | GI50 (SK-MEL-2): > 100 µM (inactive) | GI50 (SK-OV-3): > 100 µM (inactive) | GI50 (SN12C): > 100 µM (inactive) | GI50 (SNB-19): > 100 µM (inactive) | GI50 (SNB-75): > 100 µM (inactive) | GI50 (U-251): > 100 µM (inactive)

N#CC(=N)c1ncn(-c2ccc(N)cc2)c1N
GI50 (CAKI-1): > 100 µM (inactive) | GI50 (COLO 205): > 100 µM (inactive) | GI50 (HCT-116): > 100 µM (inactive) | GI50 (HOP-62): > 100 µM (inactive) | GI50 (HT-29): > 100 µM (inactive) | GI50 (Hs-578T): > 100 µM (inactive) | GI50 (IGROV-1): > 100 µM (inactive) | GI50 (LOX IMVI): > 100 µM (inactive) | GI50 (MCF7): > 100 µM (inactive) | GI50 (MDA-MB-435): > 100 µM (inactive) | GI50 (MDA-N): > 100 µM (inactive) | GI50 (NCI-H23): > 100 µM (inactive) | GI50 (RPMI-8226): > 100 µM (inactive) | GI50 (SF-295): > 100 µM (inactive) | GI50 (SK-MEL-2): > 100 µM (inactive) | GI50 (SK-OV-3): > 100 µM (inactive) | GI50 (SN12C): > 100 µM (inactive) | GI50 (SNB-19): > 100 µM (inactive) | GI50 (SNB-75): > 100 µM (inactive) | GI50 (U-251): > 100 µM (inactive)

CCc1ccc(/C=C\c2cc(OC)c(OC)c(OC)c2)cc1
GI50 (CAKI-1): 0.038 µM (active) | GI50 (COLO 205): 0.0122 µM (active) | GI50 (HCT-116): 0.0107 µM (active) | GI50 (HOP-62): 0.0531 µM (active) | GI50 (HT-29): 0.00993 µM (active) | GI50 (Hs-578T): 0.00255 µM (active) | GI50 (IGROV-1): 0.0493 µM (active) | GI50 (LOX IMVI): 0.0132 µM (active) | GI50 (MCF7): 0.0375 µM (active) | GI50 (MDA-MB-435): 0.00204 µM (active) | GI50 (MDA-N): 0.00168 µM (active) | GI50 (NCI-H23): 0.0461 µM (active) | GI50 (RPMI-8226): 0.0127 µM (active) | GI50 (SF-295): 0.00631 µM (active) | GI50 (SK-MEL-2): 0.112 µM (active) | GI50 (SK-OV-3): 0.013 µM (active) | GI50 (SN12C): 0.0159 µM (active) | GI50 (SNB-19): 0.0148 µM (active) | GI50 (SNB-75): 0.0234 µM (active) | GI50 (U-251): 0.0102 µM (active)

COc1cc(CNc2nc3ccccc3n2Cc2ccccc2)cc(CN2CCOCC2)c1O
GI50 (CAKI-1): 26.2 µM (inactive) | GI50 (COLO 205): 20.9 µM (inactive) | GI50 (HCT-116): 21.2 µM (inactive) | GI50 (HOP-62): 28.6 µM (inactive) | GI50 (HT-29): 23.3 µM (inactive) | GI50 (Hs-578T): 29.9 µM (inactive) | GI50 (IGROV-1): 52 µM (inactive) | GI50 (LOX IMVI): 15.5 µM (inactive) | GI50 (MCF7): 31.7 µM (inactive) | GI50 (MDA-MB-435): 22.5 µM (inactive) | GI50 (MDA-N): 27.4 µM (inactive) | GI50 (NCI-H23): 60.7 µM (inactive) | GI50 (RPMI-8226): 91 µM (inactive) | GI50 (SF-295): 19.3 µM (inactive) | GI50 (SK-MEL-2): 22.4 µM (inactive) | GI50 (SK-OV-3): 96.8 µM (inactive) | GI50 (SN12C): 44.2 µM (inactive) | GI50 (SNB-19): 61.8 µM (inactive) | GI50 (SNB-75): 27.9 µM (inactive) | GI50 (U-251): 31.2 µM (inactive)

O=c1c2c(-c3ccccc3)onc2n(-c2ccccc2)c(=O)n1-c1ccccc1
GI50 (CAKI-1): > 100 µM (inactive) | GI50 (COLO 205): > 100 µM (inactive) | GI50 (HCT-116): > 100 µM (inactive) | GI50 (HOP-62): 21.8 µM (inactive) | GI50 (HT-29): 21 µM (inactive) | GI50 (Hs-578T): 28.4 µM (inactive) | GI50 (IGROV-1): 22.5 µM (inactive) | GI50 (LOX IMVI): > 100 µM (inactive) | GI50 (MCF7): > 100 µM (inactive) | GI50 (MDA-MB-435): > 100 µM (inactive) | GI50 (MDA-N): > 100 µM (inactive) | GI50 (NCI-H23): 19 µM (inactive) | GI50 (RPMI-8226): > 100 µM (inactive) | GI50 (SF-295): > 100 µM (inactive) | GI50 (SK-MEL-2): 11 µM (inactive) | GI50 (SK-OV-3): > 100 µM (inactive) | GI50 (SN12C): > 100 µM (inactive) | GI50 (SNB-19): 27.4 µM (inactive) | GI50 (SNB-75): 27.8 µM (inactive) | GI50 (U-251): > 100 µM (inactive)
